Results published in ChEMBL document CHEMBL4706477, “Synthesis and Biological Evaluation of Calothrixins B and their Deoxygenated Analogues” (J Med Chem, 2018).
pIC50: −log10 of the molar value. Active and inactive are the calls of the source. The calls are words filed in the database; no cut-off is given here.

Tests used:
HCT-116 [1] = assay: cells; details: Homo sapiens, HCT-116, 48 h
Description: Antiproliferative activity against human HCT-116 cells assessed as reduction in cell viability incubated for 48 hrs by sulphorhodamine B assay

MDA-MB-231 = assay: cells; details: Homo sapiens, MDA-MB-231, 48 h
Description: Antiproliferative activity against human MDA-MB-231 cells assessed as reduction in cell viability incubated for 48 hrs by sulphorhodamine B assay

SiHa = assay: cells; details: Homo sapiens, 48 h
Description: Antiproliferative activity against human SiHa cells assessed as reduction in cell viability incubated for 48 hrs by sulphorhodamine B assay

Calf thymus DNA [2] = assay: Binding affinity to calf thymus DNA assessed as hypochromic effect at 3*10^-5 mol/L by double beam UV-Vis spectroscopic analysis; type: nucleic-acid assay; details: Bos taurus
Calf thymus DNA [3] = assay: Binding affinity to calf thymus DNA assessed as bathochromic shift absorbance in absorption maximum at 3*10^-5 mol/L by double beam UV-Vis spectroscopic analysis; type: nucleic-acid assay; details: Bos taurus
MCF7 = assay: cells; details: Homo sapiens, MCF7, 48 h
Description: Antiproliferative activity against human MCF7 cells assessed as reduction in cell viability incubated for 48 hrs by sulphorhodamine B assay

HeLa [4] = assay: cells; details: Homo sapiens, 48 h
Description: Antiproliferative activity against human HeLa cells assessed as reduction in cell viability incubated for 48 hrs by sulphorhodamine B assay

U-251 = assay: cells; details: Homo sapiens, U-251, 48 h
Description: Antiproliferative activity against human U-251 cells assessed as reduction in cell viability incubated for 48 hrs by sulphorhodamine B assay

NCI-H460 [5] = assay: cells; details: Homo sapiens, NCI-H460, 48 h
Description: Antiproliferative activity against human NCI-H460 cells assessed as reduction in cell viability incubated for 48 hrs by sulphorhodamine B assay

physchem [6] = details: octanol/water
Description: Octanol/water partition coefficient, log P of the compound

physchem [7] = details: octanol/buffer, pH 7.4
Description: Octanol/buffer distribution coefficient, log D of the compound at pH 7.4

HeLa [8] = assay: Induction of apoptosis in human HeLa cells assessed as increase in cleaved PARP levels at 10 uM by Western blot analysis; type: functional, cell-based; details: time 6-48 hrs, TDE = time-dependent effect
HCT-116 [9] = assay: Induction of cell cycle arrest in human HCT-116 cells assessed as accumulation of cells at G2/M phase at 5 uM incubated for 3 to 20 hrs in presence of 0.3 uM mitotic inhibitor nocodazole by propidium iodide staining based flow cytometry analysis; type: functional; details: time 3-20 hrs
HCT-116 [10] = assay: Induction of cell cycle arrest in human HCT-116 cells assessed as accumulation of cells at G1 phase at 5 uM incubated for 3 to 20 hrs in presence of 0.3 uM mitotic inhibitor nocodazole by propidium iodide staining based flow cytometry analysis; type: functional; details: time 3-20 hrs
Jurkat = assay: cells; details: Homo sapiens, 48 h
Description: Antiproliferative activity against human Jurkat cells assessed as reduction in cell viability incubated for 48 hrs by sulphorhodamine B assay

HCT-116 [11] = assay: cells; details: Homo sapiens, HCT-116, 48 h; remark: listed apart in the source
Description: Antiproliferative activity against human HCT-116 p53-/- cells assessed as reduction in cell viability incubated for 48 hrs by sulphorhodamine B assay

HCT-116 [12] = assay: Induction of DNA damage in human HCT-116 cells assessed as tail length at 5 uM incubated for 48 hrs by alkaline Comet assay relative to control; type: functional, cell-based
HCT-116 [13] = assay: Induction of cell cycle arrest in human HCT-116 cells assessed as accumulation of cells at G1 phase at 5 uM incubated for 48 hrs by propidium iodide staining based flow cytometry analysis; type: functional
HCT-116 [14] = assay: Induction of cell cycle arrest in human HCT-116 cells assessed as accumulation of cells at G2/M phase at 5 uM incubated for 48 hrs by propidium iodide staining based flow cytometry analysis; type: functional
HCT-116 [15] = assay: Induction of cell cycle arrest in human HCT-116 cells assessed as accumulation of cells at G2/M phase at 5 uM incubated for 20 hrs by propidium iodide staining based flow cytometry analysis; type: functional
Calf thymus DNA [16] = assay: Binding affinity to calf thymus DNA assessed as hyperchromic effect measured at 258 nm at 3*10^-5 mol/L by double beam UV-Vis spectroscopic analysis; type: nucleic-acid assay; details: Bos taurus
A549 = assay: Antiproliferative activity against human A549 cells assessed as reduction in cell viability incubated for 48 hrs by sulphorhodamine B assay; type: functional
HEK293 = assay: Antiproliferative activity against human HEK293 cells assessed as reduction in cell viability incubated for 48 hrs by sulphorhodamine B assay; type: functional
[17] = target: T1, DNA topoisomerase 1 (Homo sapiens) (UniProt P11387); assay: Inhibition of human topoisomerase 1 assessed as induction of negative supercoiled DNA using relaxed pBlue-Script KS(+) plasmid DNA as substrate measured after 15 mins by agarose gel electrophoresis analysis; details: dose 60-100 µM
T1 sequence (whole entry): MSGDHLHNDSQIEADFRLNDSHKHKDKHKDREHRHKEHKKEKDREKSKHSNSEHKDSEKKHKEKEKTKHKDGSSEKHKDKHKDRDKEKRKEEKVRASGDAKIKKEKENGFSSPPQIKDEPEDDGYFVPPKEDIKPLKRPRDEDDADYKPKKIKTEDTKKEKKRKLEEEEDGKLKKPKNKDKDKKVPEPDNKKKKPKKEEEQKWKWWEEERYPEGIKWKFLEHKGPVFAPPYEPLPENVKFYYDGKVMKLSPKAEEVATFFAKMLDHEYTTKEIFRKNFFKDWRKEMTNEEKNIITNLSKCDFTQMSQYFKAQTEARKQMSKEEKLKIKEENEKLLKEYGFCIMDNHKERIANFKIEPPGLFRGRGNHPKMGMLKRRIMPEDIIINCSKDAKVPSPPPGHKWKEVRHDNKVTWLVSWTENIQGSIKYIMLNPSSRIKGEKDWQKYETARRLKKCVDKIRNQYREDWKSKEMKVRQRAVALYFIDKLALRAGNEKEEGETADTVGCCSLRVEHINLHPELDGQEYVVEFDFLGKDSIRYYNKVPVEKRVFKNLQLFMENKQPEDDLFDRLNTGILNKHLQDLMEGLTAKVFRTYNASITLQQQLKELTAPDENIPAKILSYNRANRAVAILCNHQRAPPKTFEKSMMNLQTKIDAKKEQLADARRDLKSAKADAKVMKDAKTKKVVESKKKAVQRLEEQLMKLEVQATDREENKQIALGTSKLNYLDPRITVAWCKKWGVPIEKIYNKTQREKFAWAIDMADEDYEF

NCI-H460 [18] = assay: Induction of DNA damage in human NCI-H460 cells incubated for 48 hrs by alkaline Comet assay; type: functional, cell-based
[19] = target: T2, DNA topoisomerase 2-alpha (Homo sapiens, UniProt P11388); assay: Inhibition of recombinant human topoisomerase 2 assessed as decrease in relaxation of supercoiled pBlue-Script KS(+) plasmid DNA incubated for 30 mins by ethidium bromide staining based gel electrophoresis method
NCI-H460 [20] = assay: Induction of apoptosis in human NCI-H460 cells assessed as cleaved PARP levels at 1 uM incubated for 48 hrs by Western blot analysis; type: functional, cell-based
NCI-H460 [21] = assay: Induction of cell cycle arrest in human NCI-H460 cells assessed as accumulation of cells at G1 phase incubated for 48 hrs by propidium iodide staining based flow cytometry analysis; type: functional; details: dose 0.1-2 µM
NCI-H460 [22] = assay: Induction of apoptosis in human NCI-H460 cells assessed as morphological changes at 0.5 uM incubated for 48 hrs by acridine orange/propidium iodide double staining based fluorescence microscopy analysis; type: functional, cell-based
HCT-116 [23] = assay: Anticlonogenic activity against human HCT-116 cells assessed as inhibition of colony formation at 0.1 to 5 uM incubated for 48 hrs followed by compound washout with PBS and measured after 14 days by crystal violet staining based analysis; type: functional, cell-based; details: dose 0.1-5 µM
Calf thymus DNA [24] = assay: Binding affinity to calf thymus DNA assessed as hyperchromic effect measured at 302 nm at 3*10^-5 mol/L by double beam UV-Vis spectroscopic analysis; type: nucleic-acid assay; details: Bos taurus
NCI-H460 [25] = assay: Induction of cell death in human NCI-H460 cells at 0.1 uM incubated for 48 hrs by propidium iodide staining based flow cytometry analysis; type: functional
Calf thymus DNA [26] = assay: Binding affinity to calf thymus DNA assessed as red shift absorbance measured at 258 nm at 3*10^-5 mol/L by double beam UV-Vis spectroscopic analysis; type: nucleic-acid assay; details: Bos taurus
[27] = target: T2, DNA topoisomerase 2-alpha; assay: Inhibition of recombinant human topoisomerase 2 assessed as decrease in relaxation of supercoiled pBlue-Script KS(+) plasmid DNA at 200 uM incubated for 30 mins by ethidium bromide staining based gel electrophoresis method
[28] = target: T2, DNA topoisomerase 2-alpha; assay: Inhibition of recombinant human topoisomerase 2 assessed as decrease in relaxation of supercoiled pBlue-Script KS(+) plasmid DNA at 40 uM incubated for 30 mins by ethidium bromide staining based gel electrophoresis method relative to control
[29] = target: T2, DNA topoisomerase 2-alpha; assay: Inhibition of human topoisomerase 2 assessed as inhibition of etoposide-induced DNA cleavage complex formation by measuring linear DNA formation at 30 to 50 uM incubated for 30 mins using pRYG DNA as substrate by agarose gel electrophoresis analysis; details: dose 30-50 µM

T2 sequence (P11388 whole entry): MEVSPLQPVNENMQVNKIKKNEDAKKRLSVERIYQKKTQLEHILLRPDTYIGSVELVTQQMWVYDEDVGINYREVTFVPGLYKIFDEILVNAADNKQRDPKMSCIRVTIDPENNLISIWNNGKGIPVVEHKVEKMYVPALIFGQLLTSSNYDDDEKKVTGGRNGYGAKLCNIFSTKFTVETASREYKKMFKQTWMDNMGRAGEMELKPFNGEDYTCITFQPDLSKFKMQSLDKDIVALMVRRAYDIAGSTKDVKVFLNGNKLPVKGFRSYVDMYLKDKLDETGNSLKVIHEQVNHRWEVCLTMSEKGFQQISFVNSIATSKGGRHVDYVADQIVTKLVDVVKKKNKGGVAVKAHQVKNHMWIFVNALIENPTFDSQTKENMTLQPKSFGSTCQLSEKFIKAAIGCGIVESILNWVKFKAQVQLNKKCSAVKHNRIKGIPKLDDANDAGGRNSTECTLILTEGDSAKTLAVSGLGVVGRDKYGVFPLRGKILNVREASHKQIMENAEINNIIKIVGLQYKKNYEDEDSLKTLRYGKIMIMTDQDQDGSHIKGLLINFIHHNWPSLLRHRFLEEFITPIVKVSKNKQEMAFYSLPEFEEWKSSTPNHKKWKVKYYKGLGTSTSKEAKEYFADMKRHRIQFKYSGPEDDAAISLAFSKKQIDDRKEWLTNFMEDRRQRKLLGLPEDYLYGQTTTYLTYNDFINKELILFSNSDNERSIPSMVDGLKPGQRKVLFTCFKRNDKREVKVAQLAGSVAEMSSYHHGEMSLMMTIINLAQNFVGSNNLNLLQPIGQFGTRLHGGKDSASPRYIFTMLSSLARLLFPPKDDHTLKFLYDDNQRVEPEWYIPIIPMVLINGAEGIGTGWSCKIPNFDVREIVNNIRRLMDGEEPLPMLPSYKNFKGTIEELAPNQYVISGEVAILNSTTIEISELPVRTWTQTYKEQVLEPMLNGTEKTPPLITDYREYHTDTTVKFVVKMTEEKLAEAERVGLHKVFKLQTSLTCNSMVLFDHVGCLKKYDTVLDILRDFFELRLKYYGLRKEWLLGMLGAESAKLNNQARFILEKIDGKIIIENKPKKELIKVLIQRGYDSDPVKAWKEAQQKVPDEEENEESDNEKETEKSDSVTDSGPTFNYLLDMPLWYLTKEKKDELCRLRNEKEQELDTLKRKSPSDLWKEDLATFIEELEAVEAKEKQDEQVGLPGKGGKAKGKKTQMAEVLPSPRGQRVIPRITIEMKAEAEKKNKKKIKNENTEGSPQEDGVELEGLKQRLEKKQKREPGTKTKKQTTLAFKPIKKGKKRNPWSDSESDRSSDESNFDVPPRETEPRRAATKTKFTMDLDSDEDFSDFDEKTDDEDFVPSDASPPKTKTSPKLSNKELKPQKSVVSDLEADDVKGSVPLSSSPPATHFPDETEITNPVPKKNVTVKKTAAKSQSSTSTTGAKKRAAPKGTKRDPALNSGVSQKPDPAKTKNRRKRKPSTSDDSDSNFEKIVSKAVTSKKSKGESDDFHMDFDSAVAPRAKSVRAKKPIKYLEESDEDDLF

SMILES	GI50 (HCT-116 [1]) [µM]	GI50 (MDA-MB-231) [nM]	GI50 (SiHa) [µM]	GI50 (MCF7) [nM]	GI50 (HeLa [4]) [nM]	GI50 (U-251) [nM]	GI50 (NCI-H460 [5]) [nM]	logP (physchem [6])	logD (physchem [7])	Activity (HCT-116 [9])	GI50 (Jurkat) [µM]	Activity (HCT-116 [12])	GI50 (A549) [µM]	GI50 (HEK293) [nM]	Activity [17]	inhibition [19]	other results
CN(C)CCCNc1nc2ccccc2c2cc3[nH]c4ccccc4c3cc12	1.75	1000	1.15	2750	1100	1350	1500	–	–	–	–	–	–	–	–	–	Activity (Calf thymus DNA [2]): 40%; Activity (Calf thymus DNA [3]): 15 nm
O=C1c2[nH]c3ccccc3c2C(=O)c2cnc3ccccc3c21 [CALOTHRIXIN B]	0.65	160	3.5	260	470	2250	> 4000	-1.81	-2.11	Active	> 4	Active	–	–	–	–	Activity (HeLa [8]): Tde; Activity (HCT-116 [10]): inactive; GI50 (HCT-116 [11]): 2550 nM; Activity (HCT-116 [13]): Active
Fc1ccc2c(c1)ncc1cc3c(cc12)[nH]c1ccccc13	6	950	> 4	20	20	> 4000	1	1.91	1.61	Active	> 4	Active	> 4	5.2	Dose-dependent effect	inactive	Activity (HCT-116 [14]): Active; Activity (HCT-116 [15]): Active; Activity (Calf thymus DNA [16]): 46%; Activity (NCI-H460 [18]): Dose-dependent effect; Activity (NCI-H460 [20]): Active; Activity (NCI-H460 [21]): Dose-dependent effect; Activity (NCI-H460 [22]): Active; inhibition (HCT-116 [23]): Active; Activity (Calf thymus DNA [24]): 41%; Activity (NCI-H460 [25]): Active; Activity (Calf thymus DNA [26]): 14 nm
Cc1c2cnc3ccccc3c2cc2[nH]c3ccccc3c12	15	> 4000	> 4	> 4000	360	> 4000	10500	–	–	–	> 4	–	> 4	> 4000	Dose-dependent effect	Dose-dependent effect	inhibition [27]: 100%; pIC50 [19]: 4.72; IC90 [19]: 28.8 µM; inhibition [28]: 98%; inhibition [29]: Active
